Data published in PubChem BioAssay (NCI).
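Cultured in 96-well plates, cells were exposed to test compound for 48 hours across five concentrations. GI50: concentration for 50% inhibition of growth. TGI marks complete inhibition of growth.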

Experiments:
Assay in all cases: inhibition of tumour cell growth, NCI panel, 48 h
HCC-2998 colon = tested on: HCC-2998 colon
OVCAR-3 ovarian = tested on: OVCAR-3 ovarian
IGROV1 ovarian = tested on: IGROV1 ovarian
HT29 colon = tested on: HT29 colon
SK-OV-3 ovarian = tested on: SK-OV-3 ovarian
OVCAR-4 ovarian = tested on: OVCAR-4 ovarian
UACC-62 melanoma = tested on: UACC-62 melanoma
A498 renal = tested on: A498 renal
HCT-15 colon = tested on: HCT-15 colon
HOP-62 NSCLC = tested on: HOP-62 NSCLC
OVCAR-5 ovarian = tested on: OVCAR-5 ovarian
MOLT-4 leukemia = tested on: MOLT-4 leukemia
SNB-75 CNS = tested on: SNB-75 CNS
EKVX NSCLC = tested on: EKVX NSCLC
RPMI-8226 leukemia = tested on: RPMI-8226 leukemia
NCI/ADR-RES ovarian = tested on: NCI/ADR-RES ovarian
HCT-116 colon = tested on: HCT-116 colon
786-0 renal = tested on: 786-0 renal
TK-10 renal = tested on: TK-10 renal
SK-MEL-2 melanoma = tested on: SK-MEL-2 melanoma
HL-60(TB) leukemia = tested on: HL-60(TB) leukemia
CAKI-1 renal = tested on: CAKI-1 renal
NCI-H23 lung = tested on: NCI-H23 lung
NCI-H522 lung = tested on: NCI-H522 lung
SF-268 CNS = tested on: SF-268 CNS
CCRF-CEM leukemia = tested on: CCRF-CEM leukemia
ACHN renal = tested on: ACHN renal
MDA-MB-231 breast = tested on: MDA-MB-231 breast
COLO 205 colon = tested on: COLO 205 colon
UO-31 renal = tested on: UO-31 renal
MALME-3M melanoma = tested on: MALME-3M melanoma
SW-620 colon = tested on: SW-620 colon
SN12C renal = tested on: SN12C renal
NCI-H460 lung = tested on: NCI-H460 lung
NCI-H226 lung = tested on: NCI-H226 lung
K-562 leukemia = tested on: K-562 leukemia
SF-295 CNS = tested on: SF-295 CNS
SK-MEL-5 melanoma = tested on: SK-MEL-5 melanoma
A549 NSCLC = tested on: A549 NSCLC
MCF7 breast = tested on: MCF7 breast
OVCAR-8 ovarian = tested on: OVCAR-8 ovarian
PC-3 prostate = tested on: PC-3 prostate
UACC-257 melanoma = tested on: UACC-257 melanoma
T-47D breast = tested on: T-47D breast
DU-145 prostate = tested on: DU-145 prostate
BT-549 breast = tested on: BT-549 breast
MDA-MB-435 = tested on: MDA-MB-435
SF-539 CNS = tested on: SF-539 CNS
SR leukemia = tested on: SR leukemia
M14 melanoma = tested on: M14 melanoma
SNB-19 CNS = tested on: SNB-19 CNS
U251 CNS = tested on: U251 CNS
HS 578T breast = tested on: HS 578T breast
RXF 393 renal = tested on: RXF 393 renal
KM12 colon = tested on: KM12 colon
LOX IMVI melanoma = tested on: LOX IMVI melanoma
HOP-92 NSCLC = tested on: HOP-92 NSCLC
SK-MEL-28 melanoma = tested on: SK-MEL-28 melanoma

In the case of `O=c1[nH]c(Sc2sc3ccc(Cl)cc3c2CBr)nc(=S)[nH]1`, the GI50 (HCC-2998 colon) is reported as over 100 µM, the TGI (HCC-2998 colon) is reported as over 100 µM and the GI50 (OVCAR-3 ovarian) is reported as over 100 µM. It also gave a TGI (OVCAR-3 ovarian) of over 100 µM, a GI50 (IGROV1 ovarian) of over 100 µM and a TGI (IGROV1 ovarian) of over 100 µM. The GI50 (HT29 colon) was over 100 µM, the TGI (HT29 colon) was over 100 µM and the GI50 (SK-OV-3 ovarian) was over 100 µM. For the same compound, the TGI (SK-OV-3 ovarian) was over 100 µM, the GI50 (OVCAR-4 ovarian) was over 100 µM and the TGI (OVCAR-4 ovarian) was over 100 µM. The GI50 (UACC-62 melanoma) was over 100 µM, the TGI (UACC-62 melanoma) was over 100 µM and the GI50 (A498 renal) was over 100 µM. It also gave a TGI (A498 renal) of over 100 µM, a GI50 (HCT-15 colon) of over 100 µM and a TGI (HCT-15 colon) of over 100 µM. For the same compound, the GI50 (HOP-62 NSCLC) was over 100 µM, the TGI (HOP-62 NSCLC) was over 100 µM and the GI50 (OVCAR-5 ovarian) was over 100 µM. It also gave a TGI (OVCAR-5 ovarian) of over 100 µM, a GI50 (MOLT-4 leukemia) of 99.1 µM and a TGI (MOLT-4 leukemia) of over 100 µM. For the same compound, the GI50 (SNB-75 CNS) was over 100 µM, the TGI (SNB-75 CNS) was over 100 µM and the GI50 (EKVX NSCLC) was over 100 µM. It also gave a TGI (EKVX NSCLC) of over 100 µM, a GI50 (RPMI-8226 leukemia) of over 100 µM and a TGI (RPMI-8226 leukemia) of over 100 µM. For the same compound, the GI50 (NCI/ADR-RES ovarian) was over 100 µM, the TGI (NCI/ADR-RES ovarian) was over 100 µM and the GI50 (HCT-116 colon) was over 100 µM. The TGI (HCT-116 colon) was over 100 µM, the GI50 (786-0 renal) was over 100 µM and the TGI (786-0 renal) was over 100 µM. The GI50 (TK-10 renal) was over 100 µM, the TGI (TK-10 renal) was over 100 µM and the GI50 (SK-MEL-2 melanoma) was over 100 µM. The TGI (SK-MEL-2 melanoma) was over 100 µM, the GI50 (HL-60(TB) leukemia) was over 100 µM and the TGI (HL-60(TB) leukemia) was over 100 µM. It also gave a GI50 (CAKI-1 renal) of over 100 µM, a TGI (CAKI-1 renal) of over 100 µM and a GI50 (NCI-H23 lung) of over 100 µM. For the same compound, the TGI (NCI-H23 lung) was over 100 µM, the GI50 (NCI-H522 lung) was over 63.8 µM and the TGI (NCI-H522 lung) was over 100 µM. It also gave a GI50 (SF-268 CNS) of over 100 µM, a TGI (SF-268 CNS) of over 100 µM and a GI50 (CCRF-CEM leukemia) of over 100 µM. The TGI (CCRF-CEM leukemia) was over 100 µM, the GI50 (ACHN renal) was over 100 µM and the TGI (ACHN renal) was over 100 µM. For the same compound, the GI50 (MDA-MB-231 breast) was over 100 µM, the TGI (MDA-MB-231 breast) was over 100 µM and the GI50 (COLO 205 colon) was over 100 µM. For the same compound, the TGI (COLO 205 colon) was over 100 µM, the GI50 (UO-31 renal) was over 100 µM and the TGI (UO-31 renal) was over 100 µM. It also gave a GI50 (MALME-3M melanoma) of over 100 µM, a TGI (MALME-3M melanoma) of over 100 µM and a GI50 (SW-620 colon) of over 100 µM. The TGI (SW-620 colon) was over 100 µM, the GI50 (SN12C renal) was over 100 µM and the TGI (SN12C renal) was over 100 µM. The GI50 (NCI-H460 lung) was over 100 µM, the TGI (NCI-H460 lung) was over 100 µM and the GI50 (NCI-H226 lung) was over 100 µM. For the same compound, the TGI (NCI-H226 lung) was over 100 µM, the GI50 (K-562 leukemia) was over 100 µM and the TGI (K-562 leukemia) was over 100 µM. The GI50 (SF-295 CNS) was over 100 µM, the TGI (SF-295 CNS) was over 100 µM and the GI50 (SK-MEL-5 melanoma) was over 100 µM. The TGI (SK-MEL-5 melanoma) was over 100 µM, the GI50 (A549 NSCLC) was over 100 µM and the TGI (A549 NSCLC) was over 100 µM. The GI50 (MCF7 breast) was over 100 µM, the TGI (MCF7 breast) was over 100 µM and the GI50 (OVCAR-8 ovarian) was over 100 µM. It also gave a TGI (OVCAR-8 ovarian) of over 100 µM, a GI50 (PC-3 prostate) of over 100 µM and a TGI (PC-3 prostate) of over 100 µM. For the same compound, the GI50 (UACC-257 melanoma) was over 100 µM, the TGI (UACC-257 melanoma) was over 100 µM and the GI50 (T-47D breast) was over 100 µM. The TGI (T-47D breast) was over 100 µM, the GI50 (DU-145 prostate) was over 100 µM and the TGI (DU-145 prostate) was over 100 µM. For the same compound, the GI50 (BT-549 breast) was over 100 µM, the TGI (BT-549 breast) was over 100 µM and the GI50 (MDA-MB-435) was over 100 µM. For the same compound, the TGI (MDA-MB-435) was over 100 µM, the GI50 (SF-539 CNS) was over 100 µM and the TGI (SF-539 CNS) was over 100 µM. It also gave a GI50 (SR leukemia) of over 100 µM, a TGI (SR leukemia) of over 100 µM and a GI50 (M14 melanoma) of over 100 µM. For the same compound, the TGI (M14 melanoma) was over 100 µM, the GI50 (SNB-19 CNS) was over 100 µM and the TGI (SNB-19 CNS) was over 100 µM. The GI50 (U251 CNS) was over 100 µM, the TGI (U251 CNS) was over 100 µM and the GI50 (HS 578T breast) was over 100 µM. For the same compound, the TGI (HS 578T breast) was over 100 µM, the GI50 (RXF 393 renal) was over 81.7 µM and the TGI (RXF 393 renal) was over 100 µM. For the same compound, the GI50 (KM12 colon) was over 100 µM, the TGI (KM12 colon) was over 100 µM and the GI50 (LOX IMVI melanoma) was over 100 µM. For the same compound, the TGI (LOX IMVI melanoma) was over 100 µM, the GI50 (HOP-92 NSCLC) was over 100 µM and the TGI (HOP-92 NSCLC) was over 100 µM. For the same compound, the GI50 (SK-MEL-28 melanoma) was over 100 µM and the TGI (SK-MEL-28 melanoma) was over 100 µM.
